Test results: US10472394B2, “Cyclosporine analogue mixtures and their use as immunomodulating agents” (Aurinia Pharmaceuticals Inc., priority 2001, dated 2019)
In brackets after ≈: the same amount, converted by molar mass.

Experiments:
[1] = system: antigen-induced arthritis; experiment: antigen-induced arthritis model; assay type: in vivo, rabbit
Protocol: New Zealand White rabbits, maintained under specific pathogen free conditions, were immunized with 10 mg of ovalbumin in saline emulsified with Freund's complete adjuvant that was given intramuscularly and subcutaneously into several sites in the nape of the neck. Fourteen days later, all animals started receiving 2 daily intra-articular injections of 5 mg ovalbumin and 65 ng of human recombinant transforming growth factor 2 in saline.
Animals assigned to the treatment protocol (8/group) were dosed starting on the day of disease onset (˜Day 28) until sacrifice on Day 42.
Evaluated parameters included mortality, body weight, serum creatinine, histology, and outcome assessments such as knee joint swelling, synovial fluid counts, gross postmortem analysis, and histology.

Mouse Islet Allografts = experiment: islet cell allotransplantation in diabetic mice
From the text: Blood glucose was monitored daily until the time of graft failure, as defined by a glucose level greater than 17 mmol/L on two consecutive days.

[2] = system: T lymphocyte activation antigens; experiment: whole blood assay: expression of T lymphocyte activation antigens; assay type: cell-based, cynomolgous monkeys; settings: mitogen stimulated
Protocol: (§1) Lymphocyte proliferation was assessed by tritium-labeled thymidine incorporation and by flow-cytometric analysis of expression of proliferating cell nuclear antigen (PCNA) on cells in SG2M phase. Flow cytometry was also used to assess production of intracellular cytokines by T cells and expression of T lymphocyte activation antigens.

micronucleus = experiment: in vivo rat micronucleus assay
From the text: (§2) No carcinogenicity studies have been completed to date.

lymphocyte proliferation = experiment: whole blood assay: lymphocyte proliferation; assay type: cell-based, cynomolgous monkeys; settings: mitogen stimulated
Protocol: as §1

[3] = system: calcineurin phosphatase activity; experiment: calcineurin (CN) inhibition assay; assay type: biochemical; settings: FIG. 11; ISATX247 isomer mixture
From the text: The use of cyclosporine derivatives, a class of cyclic polypeptides produced by the fungus Tolypocladium inflatum Gams, is increasing in immunosuppressive therapy due to their preferential effects on T-cell mediated reactions. […] This action is primarily mediated through cyclosporine A-induced inhibition of calcineurin, a phosphatase enzyme found in the cytoplasm of cells (Schreiber and Crabtree, 1992).

[4] = system: bacterial reverse mutation; experiment: in vitro bacterial reverse mutation assay; assay type: cell-based
From the text: as §2

[5] = reproductive toxicity studies; assay type: in vivo, pregnant rats and rabbits
From the text: as §2

[6] = repeated-dose oral toxicity studies; assay type: in vivo, rats, dogs, and primates
[7] = system: collagen-induced arthritis; experiment: collagen-induced arthritis model; assay type: in vivo, mouse
Protocol: Male DBA/1 Lac J mice, kept under virus antibody free conditions, were immunized subcutaneously at 8 to 10 weeks of age with 100 microgram of chick type II collagen, emulsified in Freund's complete adjuvant. […] Animals assigned to the treatment protocol (12/group) were dosed starting on the day of disease onset (˜Day 28) until sacrifice on Day 38.
Evaluated parameters included mortality, serum creatinine, histology, and outcome assessments, such as clinical scoring (visual), hind paw swelling, histological scoring, erosion scoring, and immunohistochemistry.
Erosion scoring was done in a blinded manner by examining sagittal sections of the proximal interphalangeal (PIP) joint of the middle digit for the presence or absence of erosions (defined as demarcated defects in cartilage or bone filled with inflammatory tissue). This approach allowed for comparisons of the same joint.

[8] = system: production of intracellular cytokines by T cells; experiment: whole blood assay: intracellular cytokine production by T cells; assay type: cell-based, cynomolgous monkeys; settings: mitogen stimulated
Protocol: as §1

[9] = 30-day toxicokinetic/toxicity study in the rabbit model
Protocol: (§3) On Days 1 and 7, blood samples were collected prior to drug administration and at 0.5, 1, 2, 4, 8, 12, 18, and 24 hours post-dose to generate a pharmacokinetic profile. Other evaluated parameters included clinical observations, body weight, food consumption, hematology, clinical chemistry, gross pathology, and histopathological examination of selected tissues/organs.

Transplanted Rat Hearts = experiment: rat heart transplant model (heterotopic, Wistar Furth to Lewis); assay type: in vivo
From the text: If graft dysfunction was noted during the 30-day post-transplantation period, the animal was sacrificed. If the animal survived longer than 30 days post-transplantation, the test and control articles were discontinued and the animal was allowed to continue until graft dysfunction or up to 100 days post-transplantation.

chromosome aberration = experiment: in vitro chromosome aberration assay; assay type: cell-based
From the text: as §2

[10] = pharmacokinetics in the rabbit model (i.v.); assay type: in vivo; settings: for Area under the curve, mean ± SD / Cmax, mean ± SD: 10 mg/kg/day i.v.
Protocol: as §3
Blood samples were analyzed via high performance liquid chromatography coupled with mass spectrometry (LCMS).

Compound: C=C/C=C/C[C@@H](C)[C@@H](O)[C@H]1C(=O)N[C@@H](CC)C(=O)N(C)CC(=O)N(C)[C@@H](CC(C)C)C(=O)N[C@@H](C(C)C)C(=O)N(C)[C@@H](CC(C)C)C(=O)N[C@@H](C)C(=O)N[C@H](C)C(=O)N(C)[C@@H](CC(C)C)C(=O)N(C)[C@@H](CC(C)C)C(=O)N(C)[C@@H](C(C)C)C(=O)N1C [ISATX247]
- synovial fluid counts ([1]; prevention protocol): significant reductions
- synovial histopathological scores compared to vehicle control ([1]; prevention protocol, after 28 days of therapy, s.c.): significant decrease
- macroscopic arthritis score ([1]; rabbit, in vivo): significant reduction
- potency compared with cyclosporine A in treatment and prevention of arthritis ([1]; rabbit, in vivo): equivalent or potentially more potent than cyclosporine A
- synovial histopathological scores of animals with established arthritis compared to vehicle controls ([1]; treatment protocol, 14 days of treatment): Significant amelioration
- Mean Survival (Mouse Islet Allografts; 1.75 mg/kg/day i.p.): 18.7
- Mean Survival (Mouse Islet Allografts; 10 mg/kg/day i.p.): 19.2
- Mean Survival (Mouse Islet Allografts; 25 mg/kg/day i.p.): 46.4
- toxicity compared with cyclosporine A as the dose level increased (Mouse Islet Allografts; especially apparent at 25 mg/kg/day): less toxic than cyclosporine A
- EC50, CD 11a expression [2]: 0.2044 µg/mL (≈ 0.168 µM)
- EC50, CD 25 expression [2]: 0.121 µg/mL (≈ 0.0996 µM)
- EC50, CD 71 expression [2]: 0.14984 µg/mL (≈ 0.123 µM)
- EC50, CD 95 expression [2]: 0.12998 µg/mL (≈ 0.107 µM)
- EC50, CD 154 expression [2]: 0.16087 µg/mL (≈ 0.132 µM)
- mutagenic activity (micronucleus): does not exhibit mutagenic activity
- EC50, 3H-thymidine uptake (lymphocyte proliferation): 0.16054 µg/mL (≈ 0.132 µM)
- EC50, PCNA expression (lymphocyte proliferation; flow cytometry): 0.19772 µg/mL (≈ 0.163 µM)
- potency of inhibition of calcineurin phosphatase activity compared to cyclosporine A (as determined by IC50) [3]: ≤ 3 fold
- mutagenic activity [4]: does not exhibit mutagenic activity
- embryotoxicity ([5]; at doses that resulted in maternal toxicity): corresponding embryotoxicity was observed
- treatment-related malformations or alterations ([5]; pregnant rats and rabbits): no treatment-related malformations or alterations
- only toxicological effect noted in all species [6]: diarrhea/loose feces
- tolerability ([6]; rats, dogs, primates): well-tolerated
- negative erosion scores compared to vehicle group ([7]; 250 μg/mouse i.p.): higher negative erosion scores
- development of joint erosions (PIP joints) ([7]; 500 μg/mouse): significantly prevent
- negative erosion scores compared to vehicle group ([7]; 500 μg/mouse i.p.): significantly higher
- EC50, IFN-production [8]: 0.10267 µg/mL (≈ 0.0845 µM)
- EC50, IL-2 production [8]: 0.10335 µg/mL (≈ 0.0851 µM)
- EC50, TNF-production [8]: 0.09058 µg/mL (≈ 0.0746 µM)
- examination of organs ([9]; 5 mg/kg): no significant abnormalities
- examination of organs ([9]; 10 mg/kg): no significant abnormalities
- increase in serum creatinine levels ([9]; 15 mg/kg/day): did not result in any significant increase
- examination of organs ([9]; 3 female rabbits that completed the study, 15 mg/kg): No changes
- Percent Change in Serum Creatine Levels Over Baseline ([9]; male rabbits, 10 mg/kg, Day 15): +1%
- Percent Change in Serum Creatine Levels Over Baseline ([9]; male rabbits, 10 mg/kg, Day 30): +10%
- examination of organs: spermatogenesis ([9]; male rabbits, 15 mg/kg): a decrease in spermatogenesis
- Percent Change in Serum Creatine Levels Over Baseline ([9]; male rabbits, 15 mg/kg, Day 15): −19%
- Percent Change in Serum Creatine Levels Over Baseline ([9]; male rabbits, 15 mg/kg, Day 30): −11%
- hematological parameters ([9]; rabbit, in vivo): No significant changes
- increase of survival time over Cyclosporine A (Transplanted Rat Hearts; 1.75 mg/kg/day): approximately 3 fold
- graft function after discontinuation of dosing (Transplanted Rat Hearts; 100 days post-transplant (70 days post discontinuation of dosing)): still had functioning grafts at 100 days post-transplant
- mutagenic activity (chromosome aberration): does not exhibit mutagenic activity
- pharmacokinetic parameters in female rabbits compared with male rabbits ([10]; 10 mg/kg/day, exception: maximum concentration on Day 7): not significantly different
- pharmacokinetic parameters compared with cyclosporine A ([10]; male rabbits, 10 mg/kg/day): no statistically significantly differences
- Area under the curve, mean ± SD ([10]; male rabbits, Day 1): 5659 ± 1309 ng·h/mL
- Cmax, mean ± SD ([10]; male rabbits, Day 1): 1915 ± 149 ng/mL
- Area under the curve, mean ± SD ([10]; male rabbits, Day 7): 5697 ± 1373 ng·h/mL
- Cmax, mean ± SD ([10]; male rabbits, Day 7): 1959 ± 470 ng/mL
